Test results reported in article PMC9886975, “Ligand recognition mechanism of the human relaxin family peptide receptor 4 (RXFP4)” (Nature Communications, 2023).
Like-named read-outs stand apart in the source and are kept apart here.

Experiments:
RXFP4 R194A = target: T1, RXFP4 R194A (Homo sapiens, UniProt Q8TDU9, R194A); assay: cAMP accumulation, RXFP4 R194A; format: cell-based
T1 construct: RXFP4(1-374)-; expressed in transfected cells; host or cells: HEK293T, transient (pCMV6)
From the text: (§1) The full-length human RXFP4 (NCBI Reference Sequence: NM_181885.3) was cloned into a modified pFastBac vector (Invitrogen) with HA signal peptide to enhance receptor expression, followed by a 10× histidine tag and BRIL insertion at the N terminus. LgBiT subunit (Promega) was fused at the C terminus of RXFP4 connected by a 15-amino acid polypeptide linker. […] The engineered human Gαi2, Gβ1, bovine Gγ2, and scFv16 were cloned into the pFastBac vector (Invitrogen), respectively. For cAMP accumulation assay, human RXFP4 and RXFP3 (NCBI Reference Sequence: NM_016568.3) were cloned into pCMV6 constructs (OriGene Technologies). The mutant receptors were modified by site-directed mutagenesis in the setting of the WT constructs, with the primers designed by QuikChange Primer Design [QuickChange Primer Design (http://agilent.com.cn)] and carried out using Phanta Max Master (Vazyme). N-terminal Flag tag was added to both WT and mutant receptors for surface expression measurement. Sequences of all primers used in this study were provided in Supplementary Table 6, and all the constructs were confirmed by DNA sequencing.
CHO-K1 (ATCC, Cat#CCL-61) cells stably expressing human RXFP4 (hRXFP4-CHO) or RXFP3 (hRXFP3-CHO) were maintained in DMEM/F12 (Gibco) supplemented with 10% (v/v) fetal bovine serum (FBS) and 2 mM L-glutamine. Human embryonic kidney 293 T cells containing SV40 large T-antigen (HEK293T, ATCC, Cat#64127316) were maintained in DMEM (Gibco) supplemented with 10% (v/v) FBS, 1 mM sodium pyruvate (Gibco), 100 units/mL penicillin and 100 μg/mL streptomycin at 37 °C in 5% CO2. For cAMP assays in mutants, HEK293T cells were seeded onto 6-well cell culture plates at a density of 7 × 10^5 cells per well. After overnight incubation, cells were transfected with WT or mutant receptors using Lipofectamine 3000 transfection reagent (Invitrogen). Following 24 h culturing, the transfected cells were ready for detection.
Ligands were verified for their bioactivity in the beginning in hRXFP4-CHO, which were ready for use after 24 h culturing. For assaying mutants, HEK293T cells were used 24 h post transfection. Cells were digested with 0.02% (w/v) EDTA and seeded onto 384-well microtiter plates at a density of 8 × 10^5 cells/mL in cAMP stimulation buffer [HBSS supplemented with 5 mM HEPES, 0.1% (w/v) bovine serum albumin (BSA) and 0.5 mM 3-isobutyl-1-methylxanthine]. The cells were stimulated with different concentrations of ligands plus 1.5 μM forskolin in RXFP4 and 4 μM forskolin in RXFP3. […] The time-resolved fluorescence resonance energy transfer (TR-FRET) signals were detected by an EnVision multilabel plate reader (PerkinElmer) with the emission window ratio of 665 nm over 620 nm under 320 nm excitation. […]
(§2) Inhibition of forskolin-induced cAMP accumulation was performed in HEK293T cells transiently transfected with WT and mutant receptors. All the mutant constructs were modified by single-point mutation in the setting of the WT receptor. cAMP accumulation data were analyzed using a three-parameter logistic equation to determine pEC50 and Emax values. Emax values for mutants are defined as the window between the maximal response and vehicle control (no ligand) and expressed as a percentage of the WT. Cell surface expression was assessed by flow cytometry to detect the N-terminal Flag epitope label on the receptors and normalized to the WT receptor (shown as percentage). […]

parental CHO-K1 cells = assay: cAMP accumulation, parental CHO-K1 cells; format: cell-based, Chinese hamster; conditions: Supplementary Fig. 2e–g
RXFP4 E100A = target: T2, RXFP4 E100A (Homo sapiens, UniProt Q8TDU9, E100A); assay: cAMP accumulation, RXFP4 E100A; format: cell-based; conditions: HEK293T
T2 construct: RXFP4(1-374)-; expressed in transfected cells; host or cells: HEK293T, transient (pCMV6)
From the text: as §1, with “Sequences of all primers used in this study were provided in Supplementary Table 6, and all the constructs were confirmed by DNA sequencing.” left out
(§3) CHO-K1 (ATCC, Cat#CCL-61) cells stably expressing human RXFP4 (hRXFP4-CHO) or RXFP3 (hRXFP3-CHO) were maintained in DMEM/F12 (Gibco) supplemented with 10% (v/v) fetal bovine serum (FBS) and 2 mM L-glutamine. […] Following 24 h culturing, the transfected cells were ready for detection.
(§4) Ligands were verified for their bioactivity in the beginning in hRXFP4-CHO, which were ready for use after 24 h culturing. […] The time-resolved fluorescence resonance energy transfer (TR-FRET) signals were detected by an EnVision multilabel plate reader (PerkinElmer) with the emission window ratio of 665 nm over 620 nm under 320 nm excitation. […]
as §2, with “WT.” for “WT. Cell surface expression was assessed by flow cytometry to detect the N-terminal Flag epitope label on the receptors and normalized to the WT receptor (shown as percentage).”

RXFP4 R208A = target: T3, RXFP4 R208A (Homo sapiens, UniProt Q8TDU9, R208A); assay: cAMP accumulation, RXFP4 R208A; format: cell-based; conditions: HEK293T
T3 construct: RXFP4(1-374)-; expressed in transfected cells; host or cells: HEK293T, transient (pCMV6)
From the text: as §1, with “Sequences of all primers used in this study were provided in Supplementary Table 6, and all the constructs were confirmed by DNA sequencing.” left out
as §3, §4
as §2, with “WT.” for “WT. Cell surface expression was assessed by flow cytometry to detect the N-terminal Flag epitope label on the receptors and normalized to the WT receptor (shown as percentage).”

RXFP4 T121A = target: T4, RXFP4 T121A (Homo sapiens, UniProt Q8TDU9, T121A); assay: cAMP accumulation, RXFP4 T121A; format: cell-based; conditions: HEK293T
T4 construct: RXFP4(1-374)-; expressed in transfected cells; host or cells: HEK293T, transient (pCMV6)
From the text: as §1, with “Sequences of all primers used in this study were provided in Supplementary Table 6, and all the constructs were confirmed by DNA sequencing.” left out
as §3, §4
as §2, with “WT.” for “WT. Cell surface expression was assessed by flow cytometry to detect the N-terminal Flag epitope label on the receptors and normalized to the WT receptor (shown as percentage).”

RXFP4 R208K = RXFP4 R208K (Homo sapiens, UniProt Q8TDU9, R208K); assay: cAMP accumulation, RXFP4 R208K; format: cell-based; conditions: HEK293T
From the text: as §1, with “Sequences of all primers used in this study were provided in Supplementary Table 6, and all the constructs were confirmed by DNA sequencing.” left out
as §3, §4
as §2, with “WT.” for “WT. Cell surface expression was assessed by flow cytometry to detect the N-terminal Flag epitope label on the receptors and normalized to the WT receptor (shown as percentage).”

RXFP4 V122S = target: T5, RXFP4 V122S (Homo sapiens, UniProt Q8TDU9, V122S); assay: cAMP accumulation, RXFP4 V122S; format: cell-based; conditions: HEK293T, mean ± S.E.M.
T5 construct: RXFP4(1-374)-; expressed in transfected cells; host or cells: HEK293T, transient (pCMV6)
From the text: (§5) The full-length human RXFP4 (NCBI Reference Sequence: NM_181885.3) was cloned into a modified pFastBac vector (Invitrogen) with HA signal peptide to enhance receptor expression, followed by a 10× histidine tag and BRIL insertion at the N terminus. LgBiT subunit (Promega) was fused at the C terminus of RXFP4 connected by a 15-amino acid polypeptide linker. […] The engineered human Gαi2, Gβ1, bovine Gγ2, and scFv16 were cloned into the pFastBac vector (Invitrogen), respectively. For cAMP accumulation assay, human RXFP4 and RXFP3 (NCBI Reference Sequence: NM_016568.3) were cloned into pCMV6 constructs (OriGene Technologies). […]
as §3, §4

RXFP4 L118A+V122A = target: T6, RXFP4 L118A+V122A (Homo sapiens, UniProt Q8TDU9, L118A/V122A); assay: cAMP accumulation, RXFP4 L118A+V122A; format: cell-based; conditions: HEK293T
T6 construct: RXFP4(1-374)-; expressed in transfected cells; host or cells: HEK293T, transient (pCMV6)
From the text: as §5, §3, §4

RXFP4 V122A = target: T7, RXFP4 V122A (Homo sapiens, UniProt Q8TDU9, V122A); assay: cAMP accumulation, RXFP4 V122A; format: cell-based; conditions: HEK293T, mean ± S.E.M.
T7 construct: RXFP4(1-374)-; expressed in transfected cells; host or cells: HEK293T, transient (pCMV6)
From the text: as §5, §3, §4

RXFP4 W279A = target: T8, RXFP4 W279A (Homo sapiens, UniProt Q8TDU9, W279A); assay: cAMP accumulation, RXFP4 W279A; format: cell-based
T8 construct: RXFP4(1-374)-; expressed in transfected cells; host or cells: HEK293T, transient (pCMV6)
From the text: as §5, §3, §4

RXFP4 Y284A = target: T9, RXFP4 Y284A (Homo sapiens, UniProt Q8TDU9, Y284A); assay: cAMP accumulation, RXFP4 Y284A; format: cell-based
T9 construct: RXFP4(1-374)-; expressed in transfected cells; host or cells: HEK293T, transient (pCMV6)
From the text: as §5, §3, §4

T3 sequence (Q8TDU9 whole entry R208A): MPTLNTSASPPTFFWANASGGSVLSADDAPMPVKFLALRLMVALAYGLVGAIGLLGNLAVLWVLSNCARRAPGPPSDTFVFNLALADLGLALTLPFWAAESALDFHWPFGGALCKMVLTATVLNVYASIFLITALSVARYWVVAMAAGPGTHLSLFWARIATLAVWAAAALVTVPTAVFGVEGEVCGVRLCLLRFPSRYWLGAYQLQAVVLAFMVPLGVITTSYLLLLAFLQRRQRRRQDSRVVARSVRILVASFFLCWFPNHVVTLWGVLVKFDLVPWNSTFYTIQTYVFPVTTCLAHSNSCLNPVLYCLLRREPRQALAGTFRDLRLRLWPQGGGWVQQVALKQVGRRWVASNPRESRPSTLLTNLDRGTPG
Sequence of RXFP4 R208K (Q8TDU9 whole entry R208K): as the sequence (Q8TDU9 whole entry R208A) above, with A208K counted along it
T2 sequence (Q8TDU9 whole entry E100A): as the sequence (Q8TDU9 whole entry R208A) above, with E100A, A208R counted along it
T1 sequence (Q8TDU9 whole entry R194A): as the sequence (Q8TDU9 whole entry R208A) above, with R194A, A208R counted along it
T4 sequence (Q8TDU9 whole entry T121A): as the sequence (Q8TDU9 whole entry R208A) above, with T121A, A208R counted along it
T9 sequence (Q8TDU9 whole entry Y284A): as the sequence (Q8TDU9 whole entry R208A) above, with A208R, Y284A counted along it
T5 sequence (Q8TDU9 whole entry V122S): as the sequence (Q8TDU9 whole entry R208A) above, with V122S, A208R counted along it
T7 sequence (Q8TDU9 whole entry V122A): as the sequence (Q8TDU9 whole entry R208A) above, with V122A, A208R counted along it
T8 sequence (Q8TDU9 whole entry W279A): as the sequence (Q8TDU9 whole entry R208A) above, with A208R, W279A counted along it
T6 sequence (Q8TDU9 whole entry L118A/V122A): as the sequence (Q8TDU9 whole entry R208A) above, with L118A, V122A, A208R counted along it

**Q.** Which results are given for CCOc1cc2c(cc1OC)CCN(C(=O)N1CCOCC1)[C@H]2CCc1c[nH]c2ccc(OC)cc12 [DC591053, (S)-(7-ethoxy-6-methoxy-1-(2-(5-methoxy-1H-indol-3-yl)ethyl)−3,4-dihydroisoquinolin-2(1H)-yl)(morpholino)methanone]?
**A.** decrease of potency vs WT (RXFP4 R194A; HEK293T): 8.1 fold; EC50 (RXFP4 R194A; HEK293T, 1.5 μM forskolin, mean ± S.E.M., n = 3, read-out: pEC50 (converted)): 282 nM; Emax (RXFP4 R194A; HEK293T, mean ± S.E.M.): 81.10 ± 7.60 % WT; reaction with parental CHO-K1 cells (parental CHO-K1 cells): neither reacted with RXFP3 nor parental CHO-K1 cells; cAMP response (RXFP4 E100A): unchanged agonism; EC50 (RXFP4 E100A; 1.5 μM forskolin, mean ± S.E.M., N.A., not active): 107 nM; Emax (RXFP4 E100A; mean ± S.E.M.): 79.27 ± 6.72 % WT; decrease of potency vs WT (RXFP4 R208A): 7.6 fold; EC50 (RXFP4 R208A; 1.5 μM forskolin, mean ± S.E.M., n = 3, N.A., not active): 263 nM; Emax (RXFP4 R208A; mean ± S.E.M.): 52.09 ± 4.26 % WT; decrease of potency vs WT (RXFP4 T121A): 20.9 fold; EC50 (RXFP4 T121A; 1.5 μM forskolin, mean ± S.E.M., n = 3 or 4, N.A., not active): 724 nM; Emax (RXFP4 T121A; mean ± S.E.M.): 31.53 ± 7.09 % WT; response (RXFP4 R208K): more profound reduction for DC591053 than compound 4; EC50 (RXFP4 R208K; 1.5 μM forskolin, mean ± S.E.M., n = 3): 204 nM; Emax (RXFP4 R208K; mean ± S.E.M.): 60.43 ± 6.52 % WT

**Q.** What does the source list for CC[C@H](C)[C@@H]1NC(=O)[C@H](Cc2ccc(O)cc2)NC(=O)[C@H]([C@@H](C)CC)NC(=O)[C@H](C(C)C)NC(=O)[C@H]([C@@H](C)O)NC(=O)[C@H](CCCNC(=N)N)NC(=O)[C@H]([C@@H](C)CC)NC(=O)[C@H](Cc2ccc(O)cc2)NC(=O)[C@H](CCC(=O)O)NC(=O)[C@H](CC(C)C)NC(=O)CNC(=O)[C@@H](NC(=O)[C@H](CC(C)C)NC(=O)[C@H](CCCNC(=N)N)NC(=O)[C@@H](NC(=O)[C@H](CO)NC(=O)[C@H](CCC(=O)O)NC(=O)[C@@H](N)CCCCN)C(C)C)CSSC[C@@H]2NC(=O)[C@@H](NC(=O)[C@H](CC(C)C)NC(=O)[C@@H](NC(=O)[C@H](CCC(N)=O)NC(=O)[C@H](CC(C)C)NC(=O)[C@H](CC(=O)O)NC(=O)[C@@H](N)CCC(N)=O)[C@@H](C)O)CSSC[C@H](NC(=O)CNC(=O)[C@H](CC(=O)O)NC(=O)[C@H]([C@@H](C)O)NC2=O)C(=O)N[C@@H](CO)C(=O)N[C@@H](CCSC)C(=O)N[C@@H]([C@@H](C)O)C(=O)N[C@@H](CC(=O)O)C(=O)N[C@@H](CC(C)C)C(=O)N[C@@H](CO)C(=O)N[C@@H](C)C(=O)N[C@@H](CC(C)C)C(=O)N[C@H](C(=O)O)CSSC[C@@H](C(=O)N[C@@H](C)C(=O)N[C@@H](CO)C(=O)N[C@@H](CO)C(=O)N[C@@H](CCCNC(=N)N)C(=O)N[C@@H](Cc2c[nH]c3ccccc23)C(=O)O)NC1=O [INSL5, insulin-like peptide 5]?
**A.** EC50 (RXFP4 R194A): 1.66 nM; Emax (RXFP4 R194A; HEK293T, mean ± S.E.M.): 79.76 ± 6.06 % WT; EC50 (RXFP4 V122S; 1.5 μM forskolin, n = 3): 1.02 nM; Emax (RXFP4 V122S): 45.95 ± 4.97 % WT; response (RXFP4 L118A+V122A): inactive; EC50 (RXFP4 V122A; 1.5 μM forskolin, n = 3): 3.63 nM; Emax (RXFP4 V122A): 33.20 ± 3.27 % WT; EC50 (RXFP4 W279A): 1.86 nM; Emax (RXFP4 W279A; HEK293T, mean ± S.E.M.): 43.30 ± 3.29 % WT; EC50 (RXFP4 Y284A): 1.82 nM; Emax (RXFP4 Y284A; HEK293T, mean ± S.E.M.): 49.25 ± 4.06 % WT
